# From patent US10993957B2 (NuCana plc, priority 2011, dated 2021)
# Read-outs that look alike come from different tables or passages of the source.
# Legend:
# Cem/0 = test: Cytostatic assay, CEM/0 cells; format: cell-based, human; conditions: for IC50: read-out: IC50 Cem/0; for CC50: read-out: CC50 Cem/0
# Text: (§1) The cell lines employed were L1210/0 (a leukemia cell line), FM3A/0 (a breast cancer cell line), Cem/0 (an acute lymphoblastic leukemia cell line) and HeLa (a cervical cell line).
# L1210/TK^− = test: Cytostatic assay, thymidine kinase-deficient L1210/TK^− cells; format: cell-based, murine
# HeLa = test: Cytostatic assay, HeLa cells; format: cell-based; conditions: for IC50: read-out: IC50 HeLa; for CC50: read-out: CC50 HeLa
# Text: as §1
# L1210.Hyor = test: Cytostatic assay, Mycoplasma hyorhinis-infected L1210 cells; conditions: for % Retention: CC50 L1210 × 100 ÷ CC50 L1210/Hyor; for CC50: L1210, read-out: CC50 L1210/Hyor
# Text: Murine leukaemia L1210/0 and human T-lymphocyte CEM/0 cells were obtained from the American Type Culture Collection (ATCC) (Rockville, Md.). Human glioblastoma U87 cells were kindly provided by Dr. E. Menue (Institut Pasteur, Paris, France). […] S. Eriksson (currently at Uppsala University, Uppsala, Sweden) and Prof A. Karlsson (Karolinska Institute, Stockholm, Sweden). […] All cells were maintained in Dulbecco's modified Eagle's medium (DMEM) (Invitrogen, Carlsbad, Calif.) with 10% foetal bovine serum (FBS) (Biochrom AG, Berlin, Germany), 10 mM Hepes and 1 mM Sodium Pyruvate (Invitrogen). Cells were grown at 37° C. in a humidified incubator with a gas phase of 5% CO2.
# Monolayer cells (U87 and U87.Hyor) were seeded in 48-well microtiter plates (Nunc™, Roskilde, Denmark) at 10,000 cells/well. After 24 hours, an equal volume of fresh medium containing the test compounds was added. On day 5, cells were trypsinized and counted in a Coulter counter (Analis, Suarlée, Belgium). Suspension cells (L1210/0, L1210/TK^−, L1210.Hyor, CEM/0, CEM/TK^−) were seeded in 96-well microtiter plates (Nunc™) at 60,000 cells/well in the presence of a given amount of the test compounds. The cells were allowed to proliferate for 48 h (L1210) or 72 hours (CEM) and were then counted in a Coulter counter.
# Samples were also assayed for their % retention of activity in mycoplasma infected cells.
# The L1210/0 cell cultures were infected with the mycoplasma species M. hyorhinis (cells designated: L1210.Hyor).
# L1210/0 = test: Cytostatic assay, L1210/0 cells; format: cell-based, murine
# Text: as §1
# HeLa/TK^− = test: Cytostatic assay, HeLa/TK^− cells; format: cell-based; conditions: for IC50: read-out: IC50 HeLa/TK^−; for CC50: read-out: CC50 HeLa/TK^−
# Text: as §1
# Cem/TK^− = test: Cytostatic assay, thymidine kinase-deficient CEM/TK^− cells; format: cell-based, human; conditions: for IC50: read-out: IC50 Cem/TK^−; for CC50: read-out: CC50 Cem/TK^−
# [1] = Homo sapiens, CCRF-CEM, Table 6
# [2] = Mus musculus, L1210, Table 6, read-out: IC50 L1210/TK^−
# [3] = Mus musculus, L1210, read-out: IC50 L1210.Hyor
# [4] = Mus musculus, L1210/0, Table 6, read-out: IC50 L1210/0
# [5] = Mus musculus, L1210/0, Table 7, read-out: IC50 L1210/0
# [6] = Homo sapiens, CEM-TK(-), Table 6
# [7] = Table 6, read-out: IC50 L1210/TK^−
# [8] = read-out: IC50 L1210.Hyor, Table 7
# [9] = Table 6, read-out: IC50 L1210/0
# [10] = Table 7, read-out: IC50 L1210/0
# [11] = Homo sapiens, CCRF-CEM, Table 1
# [12] = Mus musculus, L1210, Table 1, read-out: CC50 L1210/TK^−
# [13] = Mus musculus, L1210/0, Table 1, read-out: CC50 L1210/0
# [14] = Mus musculus, L1210/0, Table 2, mycoplasma negative cells, read-out: CC50 L1210
# [15] = Homo sapiens, CEM-TK(-), Table 1
SMILES,IC50 (Cem/0; [1]) [nM],IC50 (L1210/TK^−; [2]) [nM],"IC50 (HeLa; Homo sapiens, HeLa, Table 6) [nM]",IC50 (L1210.Hyor; [3]) [nM],IC50(L1210.Hyor)/IC50(L1210/0) (L1210.Hyor; Table 7),IC50 (L1210/0; [4]) [nM],IC50 (L1210/0; [5]) [nM],"IC50 (HeLa/TK^−; Homo sapiens, HeLa, Table 6) [nM]",IC50 (Cem/TK^−; [6]) [nM],IC50 (Cem/0; Table 6) [nM],IC50 (L1210/TK^−; [7]) [nM],IC50 (HeLa; Table 6) [nM],IC50 (L1210.Hyor; [8]) [nM],IC50 (L1210/0; [9]) [nM],CC50 (Cem/0; [11]) [nM],CC50 (L1210/TK^−; [12]) [nM],"CC50 (HeLa; Homo sapiens, HeLa, Table 1) [nM]",CC50 (L1210/0; [13]) [nM],"CC50 (HeLa/TK^−; Homo sapiens, HeLa, Table 1) [nM]",CC50 (Cem/TK^−; [15]) [nM],further results
"C[C@H](NP(=O)(OC[C@H]1O[C@@H](n2cc(F)c(=O)[nH]c2=O)CC1O)Oc1cccc2ccccc12)C(=O)OC1Cc2ccccc2C1 (stereo partly drawn) [CPF597, 5-Fluoro-2′-deoxyuridine-5′-O-[1-naphthyl-(2-indanoxy-L-alaninyl)]phosphate]",79 ± 18,40000,100 ± 60,42 ± 40,1.08,21 ± 2,39 ± 19,7100 ± 2100,1000 ± 200,–,–,–,–,–,–,–,–,–,–,–,–
CSCCC(NP(=O)(OCC1OC(n2cc(F)c(=O)[nH]c2=O)CC1O)Oc1cccc2ccccc12)C(=O)OCc1ccccc1 (stereo not drawn) [Nap Bn Met],–,–,–,–,3.7,–,–,–,–,190 ± 100,1900 ± 200,87 ± 17,200 ± 98,72 ± 1,–,–,–,–,–,–,IC50 (L1210/0; [10]): 54 ± 13 nM; IC50 (HeLa/TK^−; Table 6): 8300 nM; IC50 (Cem/TK^−; Table 6): 11000 ± 1000 nM
"C[C@H](NP(=O)(OC[C@H]1O[C@@H](n2cc(F)c(=O)[nH]c2=O)CC1O)Oc1cccc2ccccc12)C(=O)OC1CCOCC1 (stereo partly drawn) [CPF 580, 5-Fluoro-2′-deoxyuridine-5′-O-[1-naphthyl-(tetrahydropyroxy-L-alaninyl)]phosphate]",110 ± 20,27000 ± 6000,130 ± 40,480 ± 110,11.7,38 ± 14,41 ± 2.8,15000 ± 7000,43000 ± 12000,–,–,–,–,–,110 ± 20,27000 ± 6000,130 ± 40,38 ± 14,15000 ± 7000,43000 ± 12000,% Retention (L1210.Hyor): 12%; CC50 (L1210.Hyor; Mus musculus): 410 nM; CC50 (L1210/0; [14]): 48 nM
"C[C@H](NP(=O)(OC[C@H]1O[C@@H](n2cc(F)c(=O)[nH]c2=O)CC1O)Oc1cccc2ccccc12)C(=O)OCC1CC1 (stereo partly drawn) [CPF 579, 5-Fluoro-2′-deoxyuridine-5′-O-[1-naphthyl-(cyclopropylmethanoxy-L-alaninyl)] phosphate]",59 ± 17,120 ± 60,68 ± 1,31 ± 6.4,2.2,17 ± 7,14 ± 4.2,1400 ± 400,1100 ± 200,–,–,–,–,–,59 ± 17,120 ± 60,68 ± 1,17 ± 7,1400 ± 400,1100 ± 200,% Retention (L1210.Hyor): 42%; CC50 (L1210.Hyor; Mus musculus): 45 nM; CC50 (L1210/0; [14]): 19 nM
CCCCCCOC(=O)C(C)NP(=O)(OCC1OC(n2cc(F)c(=O)[nH]c2=O)CC1O)Oc1cccc2ccccc12 (stereo not drawn) [Nap Hex Ala],–,–,–,–,0.69,–,–,–,–,80 ± 20,76 ± 15,39 ± 18,2.2 ± 0.28,7.2,–,–,–,–,–,–,IC50 (L1210/0; [10]): 3.2 ± 0.35 nM; IC50 (HeLa/TK^−; Table 6): 1800 ± 100 nM; IC50 (Cem/TK^−; Table 6): 650 ± 340 nM
"CCCCOC(=O)[C@H](C)NP(=O)(OC[C@H]1O[C@@H](n2cc(F)c(=O)[nH]c2=O)CC1O)Oc1cccc2ccccc12 (stereo partly drawn) [CPF 589, 5-Fluoro-2′-deoxyuridine-5′-O-[1-naphthyl-(butoxy-L-alaninyl)] phosphate]",64 ± 7,110 ± 60,120 ± 20,21 ± 7.1,2.2,22 ± 4,9.5 ± 2.1,2700 ± 1500,840 ± 600,–,–,–,–,–,64 ± 7,110 ± 60,120 ± 20,22 ± 4,2700 ± 1500,840 ± 600,% Retention (L1210.Hyor): 32%; CC50 (L1210.Hyor; Mus musculus): 63 nM; CC50 (L1210/0; [14]): 20 nM
"O=C(OCc1ccccc1)C1CCCN1P(=O)(OC[C@H]1O[C@@H](n2cc(F)c(=O)[nH]c2=O)CC1O)Oc1cccc2ccccc12 (stereo partly drawn) [CPF 577, 5-Fluoro-2′-deoxyuridine-5′-O-[1-naphthyl(benzoxy-L-prolinyl)] phosphate]",–,–,–,650 ± 70,2.5,–,–,–,–,–,–,–,–,–,–,–,–,–,–,–,"CC50 (Cem/0; Homo sapiens, CCRF-CEM): 890 ± 350 nM; IC50 (Cem/0; Homo sapiens, CCRF-CEM): 890 ± 350 nM; CC50 (L1210/TK^−; Mus musculus, L1210, read-out: CC50 L1210/TK^−): 25000 ± 8000 nM; IC50 (L1210/TK^−; Mus musculus, L1210, read-out: IC50 L1210/TK^−): 25000 ± 8000 nM; CC50 (HeLa; Homo sapiens, HeLa): 1200 nM; IC50 (HeLa; Homo sapiens, HeLa): 1200 nM; % Retention (L1210.Hyor): 36%; CC50 (L1210.Hyor; Mus musculus): 630 nM; CC50 (L1210/0; Mus musculus, L1210/0, read-out: CC50 L1210): 230 nM; CC50 (L1210/0; Mus musculus, L1210/0, read-out: CC50 L1210/0): 210 ± 80 nM; IC50 (L1210/0; Mus musculus, L1210/0, read-out: IC50 L1210/0, Table 6): 210 ± 80 nM; IC50 (L1210/0; Mus musculus, L1210/0, read-out: IC50 L1210/0, Table 7): 260 ± 55 nM; CC50 (HeLa/TK^−; Homo sapiens, HeLa): 26000 ± 1000 nM; IC50 (HeLa/TK^−; Homo sapiens, HeLa): 26000 ± 1000 nM; CC50 (Cem/TK^−; Homo sapiens, CEM-TK(-)): 32000 ± 9000 nM; IC50 (Cem/TK^−; Homo sapiens, CEM-TK(-)): 35000 ± 9000 nM"
CCCCCOC(=O)C(CC(C)C)NP(=O)(OCC1OC(n2cc(F)c(=O)[nH]c2=O)CC1O)Oc1cccc2ccccc12 (stereo not drawn) [Nap Pnt Leu],–,–,–,–,1.13,–,–,–,–,71 ± 8,1200 ± 400,39 ± 14,35 ± 10,17 ± 1,–,–,–,–,–,–,IC50 (L1210/0; [10]): 31 ± 2 nM; IC50 (HeLa/TK^−; Table 6): 7500 ± 400 nM; IC50 (Cem/TK^−; Table 6): 15000 ± 4000 nM
O=C(OCc1ccccc1)C(Cc1ccccc1)NP(=O)(OCC1OC(n2cc(F)c(=O)[nH]c2=O)CC1O)Oc1ccccc1 (stereo not drawn) [Ph Bn Phe],–,–,–,–,35,–,–,–,–,250 ± 20,39000 ± 4000,14 ± 7,560 ± 23,36 ± 10,–,–,–,–,–,–,IC50 (L1210/0; [10]): 16 ± 1.4 nM; IC50 (HeLa/TK^−; Table 6): 12000 ± 2000 nM; IC50 (Cem/TK^−; Table 6): 11000 ± 3000 nM
CCCOC(=O)C(C)NP(=O)(OCC1OC(n2cc(F)c(=O)[nH]c2=O)CC1O)Oc1cccc2ccccc12 (stereo not drawn) [Nap Pr Ala],–,–,–,–,1.2,–,–,–,–,140 ± 10,160 ± 70,110 ± 30,36 ± 6.4,21 ± 12,–,–,–,–,–,–,IC50 (L1210/0; [10]): 30 ± 0.35 nM; IC50 (HeLa/TK^−; Table 6): 2500 ± 100 nM; IC50 (Cem/TK^−; Table 6): 1100 ± 200 nM
"O=C(OCc1ccccc1)[C@H](Cc1ccccc1)NP(=O)(OC[C@H]1O[C@@H](n2cc(F)c(=O)[nH]c2=O)CC1O)Oc1cccc2ccccc12 (stereo partly drawn) [CPF 587, 5-Fluoro-2′-deoxyuridine-5′-O-[1-naphthyl-(benzoxy-L-phenylalaninyl)]phosphate]",100 ± 30,5600 ± 1300,160 ± 80,230 ± 78,11,12 ± 7,21 ± 6.1,6800 ± 1500,7200 ± 100,–,–,–,–,–,100 ± 30,5600 ± 1300,160 ± 80,12 ± 7,6800 ± 1500,7200 ± 100,% Retention (L1210.Hyor): 0.5%; CC50 (L1210.Hyor; Mus musculus): 4200 nM; CC50 (L1210/0; [14]): 22 nM
"CC(C)OC(=O)[C@H](C)NP(=O)(O)OCC1OC(n2cc(F)c(=O)[nH]c2=O)CC1O (stereo partly drawn) [CPF 438, reference compound]",–,–,–,–,–,–,–,–,–,–,–,–,–,–,2100 ± 600,51000 ± 9000,3700 ± 500,120 ± 20,72000,32000 ± 2000,–
"CCOC(=O)[C@H](C)NP(=O)(O)OCC1OC(n2cc(F)c(=O)[nH]c2=O)CC1O (stereo partly drawn) [CPF 437, reference compound]",–,–,–,–,–,–,–,–,–,–,–,–,–,–,> 100000,> 100000,> 100000,36000 ± 5000,> 100000,> 100000,–
